Test results: patent publication US8399682B2, “Substituted (pyrazolylcarbonyl)imidazolidinones and their use” (AiCuris GmbH & Co. KG, priority 2008, dated 2013)

How the values were obtained:
[1] = target: T1, reverse transcriptase (Human immunodeficiency virus type 1 group M subtype B, UniProt P04585); test: Biochemical Reverse Transcriptase Assay (Reverse Transcriptase Assay, colorimetric, Roche); conditions: read-out: IC50 (nM) RT Assay
T1 construct: negative control (mixture without reverse transcriptase); purchased Roche Diagnostics GmbH, Mannheim, Germany
Experimental: The “Reverse Transcriptase Assay, colorimetric” (Roche Diagnostics GmbH, Mannheim, Germany) is used in accordance with the manufacturer's information. The test substances are dissolved in DMSO and are used in the test diluted in 5-fold steps (final DMSO concentration 1%). The resulting values of the photometric evaluation (405/492 nm) are less than 0.1 for the negative control (mixture without reverse transcriptase) and are in the region of 1.5 for the positive control (mixture without test substance). The IC50 values of the test substances are determined as the concentration of the test substance dilution at which the measured optical density is 50% of the positive control.

[2] = tested on: HIV-1LAI; test: H9 assay with wild-type HIV-1 (HIV-1LAI supernatant infection, AlamarBlue); format: cell-based; conditions: Human immunodeficiency virus 1, H9 cells, 10% FCS
Experimental: For the mixture for a 96-well MTP, 3 million PBLs are pelleted, suspended in 1 ml of RPMI 1640 medium/10% FCS and incubated together with a suitable amount of HIV-1LAI (NIH AIDS Research & Reference Reagent Program, Germantown, USA) at 37° C. for 2 hours (pellet infection). Unadsorbed viruses are subsequently washed out with PBS, and the infected cells are pelleted again and suspended in 18 ml of RPMI 1640 medium/10% FCS/interleukin-2 (40 U/ml). 180 μl thereof are pipetted into each well of a white 96-well MTP with 20 μl of test substance in suitable dilution. Alternatively, after preparation of the substance dilutions in the MTP, the HIV is pipetted in together with the cells and is not washed out again (supernatant infection). In order to avoid edge effects, the wells at the edge of the MTP are not used for substance dilutions. The second vertical row of the MTP contains only infected cells (virus control) and the eleventh vertical row only uninfected cells (cell control), in each case in RPMI 1640 medium/10% FCS/interleukin-2 (40 U/ml). The other wells of the MTP contain the compounds of the invention in various concentrations starting from the third vertical row, from which the test substances are diluted in 3-fold steps up to the tenth vertical row 3^7-fold. The test substances are dissolved in DMSO, whereby the final DMSO concentration in the test mixture eventually is 1%. The test mixtures are incubated at 37° C./5% CO2. After 5 and 7 days, 50 μl of cell-free supernatant are removed from each well to determine the amount of p24 present by means of a p24 ELISA (HIV-1 p24^CA Antigen Capture Assay Kit, NCI-Frederick Cancer Research and Development Center, Frederick, USA). From the resulting values of the photometric evaluation (450/620 nm) the EC50 values of the test substances are determined as the concentration at which the amount of p24 is 50% of the untreated infected cells.
Alternatively, H9 cells (ATCC, Wesel, Germany) are employed instead of PBLs for testing the test substances. H9 cells are incubated in RPMI 1640 medium with 2% or 10% FCS as a HIV-1LAI supernatant infection at 37° C./5% CO2, (20 μl of substance dilution and 80 μl of cells/virus per well) in accordance with the pattern described above for 5 days. Subsequently, 10 μl of AlamarBlue (Invitrogen, Karlsruhe, Germany) are added to each well, and the MTPs are incubated at 37° C. for 3 hours before the fluorimetric evaluation takes place (544/590 nm). The resulting values are about 40 000 for the untreated uninfected cells and about 7000 for the untreated infected cells. In the low concentration range, the EC50 values of the test substances are determined as the concentration at which the fluorescence is 50% of the untreated uninfected cells (in each case subtracting the values of the untreated infected cells). In addition, in the high concentration range, the CC50 values of the test substances are determined as the concentration at which the fluorescence is 50% of the untreated uninfected cells (in each case subtracting the values of the untreated infected cells).

[3] = tested on: HIV-1NL4-3 wt; test: Light assay with wild-type HI reporter virus in MT4 7F2 cells; format: cell-based; conditions: Human immunodeficiency virus 1, 2% FCS
Experimental: (§1) For the mixture for a 96-well MTP, 3 million MT4 7F2 cells are pelleted, suspended in 1 ml of RPMI 1640 medium without phenol red (Invitrogen, Karlsruhe, Germany)/10% FCS/10% AIM-V (Invitrogen, Karlsruhe, Germany) and incubated together with a suitable amount of the corresponding HIV-1NL4-3 reporter virus at 37° C. for 2 hours (pellet infection). Unadsorbed viruses are subsequently washed out with PBS, and the infected cells are pelleted again and suspended in 8 ml of RPMI 1640 medium without phenol red/2% or 10% FCS/10% AIM-V. 80 μl thereof are pipetted into each well of a white 96-well MTP with 20 μl of test substance in suitable dilution. To avoid edge effects, the wells on the edge of the MTP are not used for substance dilutions. The second vertical row of the MTP contains only infected cells (virus control) and the eleventh vertical row only uninfected cells (cell control), in each case in RPMI 1640 medium without phenol red/2% or 10% FCS/10% AIM-V. The other wells of the MTP contain the compounds of the invention in various concentrations starting from the third vertical row, from which the test substances are diluted in 3-fold steps up to the tenth vertical row 3^7-fold. The test substances are dissolved in DMSO, whereby the final DMSO concentration in the test mixture eventually is 1%. The test mixtures are incubated at 37° C./5% CO2 for five days and, after the addition of 15 μl of Lu164 substrate (5 mg/ml coelenterazine dissolved in 30 μM glutathione/DMSO, 100 mM NaCl, 1M MES, 100 mM glutathione), evaluated by luminometry. The resulting values are in the region of 1 000 000 RLUs (relative light units) for the virus control and 300 to 400 RLUs for the cell control. The EC50 values of the test substances are determined as the concentration at which the virus replication measured in RLUs is 50% of the untreated infected cells.

[4] = tested on: HIV-1NL4-3 K103N-Y181C; test: Light assay with inhibitor-resistant HI reporter virus in MT4 7F2 cells; format: cell-based; conditions: Human immunodeficiency virus 1, read-out: EC50 (nM) MT4 7F2 cells HIV-1NL4-3 K103N-Y181C 2% FCS
Experimental: as §1

Row | Compound | IC50 [1] [nM] | EC50 [2] [nM] | EC50 [3] [nM] | EC50 [4] [nM]
1 | N#Cc1cccc(-n2nc(C(=O)N3CNC(=O)C3)cc2-c2cc(F)cc(Cl)c2)c1 [Example 59] | 8 | 1 | 0.2 | 10
2 | N#Cc1cc(-n2nc(C(=O)N3CNC(=O)C3)cc2-c2cc(F)cc(Cl)c2)ccc1F [Example 60, 5-{5-(3-Chloro-5-fluorophenyl)-3-[(4-oxoimidazolidin-1-yl)carbonyl]-1H-pyrazol-1-yl}-2-fluorobenzenecarbonitrile] | 9 | 0.9 | 0.1 | 4
3 | N#Cc1cc(F)cc(-c2cc(C(=O)N3CNC(=O)C3)nn2-c2cccc(Cl)c2)c1 [Example 61, 3-{1-(3-Chlorophenyl)-3-[(4-oxoimidazolidin-1-yl)carbonyl]-1H-pyrazol-5-yl}-5-fluorobenzenecarbonitrile] | 35 | 3 | 1 | 80
4 | N#Cc1cc(F)cc(-c2cc(C(=O)N3CNC(=O)C3)nn2-c2ccc(F)c(Cl)c2)c1 [Example 62, 3-{1-(3-Chloro-4-fluorophenyl)-3-[(4-oxoimidazolidin-1-yl)carbonyl]-1H-pyrazol-5-yl}-5-fluorobenzenecarbonitrile] | 49 | 9 | 2 | 63
5 | N#Cc1cc(F)cc(-c2cc(C(=O)N3CNC(=O)C3)nn2-c2ccc(F)c(C#N)c2)c1 [Example 63, 5-{5-(3-Cyano-5-fluorophenyl)-3-[(4-oxoimidazolidin-1-yl)carbonyl]-1H-pyrazol-1-yl}-2-fluorobenzenecarbonitrile] | 102 | 150 | 20 | 237
6 | N#Cc1cc(F)cc(-c2cc(C(=O)N3CNC(=O)C3)nn2-c2cccc(C#N)c2)c1 [Example 64, 3-{1-(3-Cyanophenyl)-3-[(4-oxoimidazolidin-1-yl)carbonyl]-1H-pyrazol-5-yl}-5-fluorobenzenecarbonitrile] | 25 | 100 | 5 | 250
